Experimental data from ChEMBL document CHEMBL4376820, “Homodimeric Tobramycin Adjuvant Repurposes Novobiocin as an Effective Antibacterial Agent against Gram-Negative Bacteria” (J Med Chem, 2019).

How the values were obtained:
Pseudomonas aeruginosa = assay: Bactericidal activity against Pseudomonas aeruginosa PAO1 assessed as log reduction in colony forming units per ml at 7.1 uM in LB media after 24 hrs in presence of 50.4 uM novobiocin by time-kill assay; format: functional
Klebsiella pneumoniae = assay: Potentiation of novobiocin-induced antibacterial activity against colistin-resistant Klebsiella pneumoniae 113254 clinical isolate assessed as novobiocin MIC at <= 7.1 uM incubated for 18 hrs by CLSI protocol based assay (reference value: 256 ug/ml); format: functional; details: Klebsiella pneumoniae, 113254, 18 h

## NC[C@H]1O[C@H](O[C@H]2[C@H](OCCCCc3cn(CCCCO[C@@H]4[C@@H](O[C@H]5O[C@H](CO)[C@@H](O)[C@H](N)[C@H]5O)[C@H](N)C[C@H](N)[C@H]4O[C@H]4O[C@H](CN)[C@@H](O)C[C@H]4N)nn3)[C@@H](O[C@H]3O[C@H](CO)[C@@H](O)[C@H](N)[C@H]3O)[C@H](N)C[C@@H]2N)[C@H](N)C[C@@H]1O.O=C(O)C(F)(F)F.O=C(O)C(F)(F)F.O=C(O)C(F)(F)F.O=C(O)C(F)(F)F.O=C(O)C(F)(F)F.O=C(O)C(F)(F)F.O=C(O)C(F)(F)F.O=C(O)C(F)(F)F.O=C(O)C(F)(F)F.O=C(O)C(F)(F)F
Pseudomonas aeruginosa
  Activity: -9.48 CFU/ml
Klebsiella pneumoniae
  MIC: 16 µg/mL
